Values of other authors as cited in US4231928A, “Antibacterial agents” (priority 1979, dated 1980).

Test system: Pseudomonas aeruginosa
Conditions: prior art penicillins; cited from earlier work

## CC1(C)S[C@@H]2[C@H](NC(=O)[C@H](C(=O)O)c3ccsc3)C(=O)N2[C@H]1C(=O)O [ticarcillin]
  potency against Pseudomonas aeruginosa (in words): only a relatively low potency
